Source: US20230374017A1, “COMPOSITIONS AND METHODS FOR ACTIVATING PYRUVATE KINASE” (The Regents of the University of Michigan, priority 2020, published 2023)

Columns and labels:
[1] = molecular target: T1, human recombinant PKM2 (Homo sapiens, UniProt P14618); test: Pyruvate kinase activity enzyme assay, recombinant enzyme (LDH-coupled, NADH depletion at 340 nm); format: biochemical; settings: normalized to DMSO-treated PKM2 activity; for EC50: recombinant PKM2 20 nM; for Emax: recombinant PKM2, read-out: Max Activation
T1 construct: purchased Sigma SAE0021
Procedure: Pyruvate Kinase Activity Enzyme Assay. Recombinant Enzyme. A continuous, enzyme-coupled assay, which uses lactate dehydrogenase (LDH) and measures the depletion of NADH via absorbance at 340 nm was utilized to determine the pyruvate kinase activity. For AC50 measurements (concentration of activator necessary to achieve half-maximal activation) with ML-265, assays were performed in 96-well format using 200 μL/well assay volume with final concentrations of 20 nM human recombinant PKM2 (Sigma, SAE0021), differing concentrations of ML-265, 0.5 mM PEP, 1 mM ADP, 0.2 mM NADH, and 8 U of lactate dehydrogenase (LDH) in an assay buffer of 50 mM Tris-HCl (pH 7.4), 100 mM KCl, and 5 mM MgCl2. The decrease in absorbance at 340 nm was monitored using a SPECTROstar Omega plate reader (BMG LABTECH Inc., Cary, NC, USA). Initial velocities were calculated with the MARS software. Data were normalized to DMSO (dimethyl sulfoxide)-treated PKM2 activity.

[2] = molecular target: T2, pyruvate kinase activity, 661W cell line (Mus musculus, UniProt P52480); test: Pyruvate kinase activity in 661W cell lysates after 2 hours treatment; format: cell-based; settings: 661W cells, 2 hours incubation, activity normalized to total protein; for Emax: read-out: Max Activation (cell)
T2 construct: endogenous in cells; host or cells: 661W cell line
Procedure: Cell culture. For 661W cell line experiments, media was replaced prior to the start of treatment with DMSO or ML-265. Cells were incubated with DMSO or different concentrations of ML-265 for 2 hours. Cells were lysed and homogenized in RIPA Lysis and Extraction Buffer (Catalog number: 89900, Life Technologies Corporation, Grand Island, NY) with protease inhibitors (Complete-Mini, Roche Diagnostics, Indianapolis, IN) and cellular debris was removed by centrifugation at 10,000 rpm for 10 minutes. Ten microliters of the supernatant was used to assess pyruvate kinase activity, and the activity was normalized to total protein content as previously described.

[3] = system: photoreceptors / retina; settings: cited from earlier work

T1 sequence (P14618 whole entry): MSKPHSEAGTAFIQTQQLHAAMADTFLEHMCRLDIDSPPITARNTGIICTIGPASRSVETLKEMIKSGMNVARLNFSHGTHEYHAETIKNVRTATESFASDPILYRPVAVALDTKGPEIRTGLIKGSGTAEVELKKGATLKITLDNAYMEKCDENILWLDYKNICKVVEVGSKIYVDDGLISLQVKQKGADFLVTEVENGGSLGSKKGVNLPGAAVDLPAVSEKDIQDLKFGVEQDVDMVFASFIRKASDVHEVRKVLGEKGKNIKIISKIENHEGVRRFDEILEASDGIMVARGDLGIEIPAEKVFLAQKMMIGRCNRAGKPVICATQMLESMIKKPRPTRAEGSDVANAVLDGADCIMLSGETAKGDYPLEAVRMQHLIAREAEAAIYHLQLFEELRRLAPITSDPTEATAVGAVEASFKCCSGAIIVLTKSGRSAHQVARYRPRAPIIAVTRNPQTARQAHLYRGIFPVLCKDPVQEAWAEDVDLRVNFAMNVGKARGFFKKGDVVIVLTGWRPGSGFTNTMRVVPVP
T2 sequence (P52480 whole entry): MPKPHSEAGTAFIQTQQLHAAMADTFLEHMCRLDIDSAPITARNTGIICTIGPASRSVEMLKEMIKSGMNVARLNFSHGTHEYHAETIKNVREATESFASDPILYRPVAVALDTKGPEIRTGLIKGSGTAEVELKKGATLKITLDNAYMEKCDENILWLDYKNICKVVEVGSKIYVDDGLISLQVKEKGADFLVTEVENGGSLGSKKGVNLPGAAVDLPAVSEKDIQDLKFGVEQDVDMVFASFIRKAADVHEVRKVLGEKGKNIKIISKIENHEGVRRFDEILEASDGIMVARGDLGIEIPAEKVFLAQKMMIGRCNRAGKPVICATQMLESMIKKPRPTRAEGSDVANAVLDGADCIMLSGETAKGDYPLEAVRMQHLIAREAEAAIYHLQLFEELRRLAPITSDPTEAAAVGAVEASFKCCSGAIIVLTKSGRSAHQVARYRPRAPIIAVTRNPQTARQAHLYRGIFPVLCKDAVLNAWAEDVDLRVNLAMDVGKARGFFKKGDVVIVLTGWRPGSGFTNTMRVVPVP

EC50 [1] | Emax [1] | EC50 [2] | Emax [2] | Structure (SMILES) | toxic effects on the retina ([3]; long-term) | photoreceptor apoptosis ([3]; small molecule activation of PKM2, models of outer retinal stress)
82 nM | 191% | 162 nM | 210% | Cn1c2cc(Oc3ccc4[nH]ncc4n3)ccc2c2cnn(Cc3ccccc3F)c(=O)c21 [Example 70, 7-((1H-pyrazolo[4,3-b]pyridin-5-yl)oxy)-3-(2-fluorobenzyl)-5-methyl-3,5-dihydro-4H-pyridazino[4,5-b]indol-4-one] |  | 
28 nM | 165% | 69 nM | 278% | Cn1c2cc(Oc3nccc4[nH]ncc34)ccc2c2cnn(Cc3ccccc3F)c(=O)c21 [Example 71, 7-((1H-pyrazolo[4,3-c]pyridin-4-yl)oxy)-3-(2-fluorobenzyl)-5-methyl-3,5-dihydro-4H-pyridazino[4,5-b]indol-4-one] |  | 
55 nM | 206% | 72 nM | 222% | Cn1c2cc(Oc3cccc(O)n3)ccc2c2cnn(Cc3ccccc3F)c(=O)c21 [Example 72, 3-(2-fluorobenzyl)-7-((6-hydroxypyridin-2-yl)oxy)-5-methyl-3,5-dihydro-4H-pyridazino [4,5-b]indol-4-one] |  | 
22 nM | 232% | 104 nM | 189% | Cn1c2cc(Oc3ncnc4[nH]ncc34)ccc2c2cnn(Cc3ccccc3F)c(=O)c21 [Example 73, 7-((1H-pyrazolo[3,4-d]pyrimidin-4-yl)oxy)-3-(2-fluorobenzyl)-5-methyl-3,5-dihydro-4H-pyridazino[4,5-b]indol-4-one] |  | 
62 nM | 234% | 81 nM | 370% | Cn1c2cc(Oc3cccc(F)n3)ccc2c2cnn(Cc3ccccc3F)c(=O)c21 [Example 74, 3-(2-fluorobenzyl)-7-((6-fluoropyridin-2-yl)oxy)-5-methyl-3,5-dihydro-4H-pyridazino[4,5-b]indol-4-one] |  | 
35 nM | 195% | 47 nM | 247% | Cn1c2cc(Oc3cccc(Cl)n3)ccc2c2cnn(Cc3cccc(N)c3)c(=O)c21 [Example 78, 3-(3-aminobenzyl)-7-((6-chloropyridin-2-yl)oxy)-5-methyl-3,5-dihydro-4H-pyridazino[4,5-b]indol-4-one] |  | 
45 nM | 286% | 235 nM | 325% | Cn1c2cc(Oc3cccc(N)c3)ccc2c2cnn(Cc3cccc(N)c3)c(=O)c21 [Example 80, 3-(3-aminobenzyl)-7-(3-aminophenoxy)-5-methyl-3,5-dihydro-4H-pyridazino[4,5-b]indol-4-one] |  | 
49 nM | 336% | 259 nM | 259% | Cn1ncc2c3ccc(Oc4cccc(Cl)n4)cc3n(C)c2c1=O [Example 81, 7-((6-chloropyridin-2-yl)oxy)-3,5-dimethyl-3,5-dihydro-4H-pyridazino[4,5-b]indol-4-one] |  | 
63 nM | 330% | 76 nM | 315% | Cn1c2cc(Oc3cccc(F)n3)ccc2c2cnn(Cc3cccc4[nH]ncc34)c(=O)c21 [Example 85, 3-((1H-indazol-4-yl)methyl)-7-((6-fluoropyridin-2-yl)oxy)-5-methyl-3,5-dihydro-4H-pyridazino[4,5-b]indol-4-one] |  | 
63 nM | 195% | 172 nM | 352% | Cn1c2cc(Oc3cccc(F)n3)ccc2c2cnn(Cc3cc[nH]n3)c(=O)c21 [Example 86, 3-((1H-pyrazol-3-yl)methyl)-7-((6-fluoropyridin-2-yl)oxy)-5-methyl-3,5-dihydro-4H-pyridazino[4,5-b]indol-4-one] |  | 
72 nM | 218% | 60 nM | 202% | COc1cccc(Cn2ncc3c4ccc(Oc5cccc(F)n5)cc4n(C)c3c2=O)c1 [Example 90, 7-((6-fluoropyridin-2-yl)oxy)-3-(3-methoxybenzyl)-5-methyl-3,5-dihydro-4H-pyridazino[4,5-b]indol-4-one] |  | 
 |  |  |  | Cn1c2cc([S+](C)[O-])sc2c2cnn(Cc3cccc(N)c3)c(=O)c21 (stereo not shown) [ML-265] | without any toxic effects on the retina long-term | circumvents photoreceptor apoptosis
